The source of these data is PubChem BioAssay AID2005 (Sanford-Burnham Center for Chemical Genomics, 2009).

Calls of active or inactive are those of the source.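 Rule for the calls: active = plate Z score at or below -3, or inhibition of at least 30% at 20 µM; inactive = the rest.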

One may read the inhibition as the change of the read-out against control, counted positive when it falls.

A short description of this assay: EGFP reporter destabilization counter-screen – F442A EGFP cells, fluorescence, counter-screen for p/CIP destabilizer project, dose response (AID 2005).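 Note: cells express EGFP alone from a CMV promoter as a counter screen for p/CIP-EGFP.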 The following applies: F442A EGFP cells, EGFP fluorescence, 16 h, stronger effect = higher value. (Counterscreens check selectivity or assay interference.)

`Cc1nc2ccccc2c(=O)n1-c1ccc(Cl)c(Cl)c1`: the inhibition (EGFP decrease, at 10 µM) was 12.7% and the inhibition (at 20 µM) was 12.7% (inactive).
For `O=c1c(Br)c(Br)cnn1-c1ccccc1`, the inhibition runs as follows: (EGFP decrease, at 10 µM) 14.6%; (at 20 µM) 29.7% (inactive).
Regarding `Cc1ccc(NC(=S)NC(NC(=O)c2ccco2)C(Cl)(Cl)Cl)cc1` (configuration not stated), the inhibition by setting is: (EGFP decrease, at 10 µM) 6.3%; (at 20 µM) 31.9%.
With `CCOC(=O)N1CCN(c2ccc(C(C)=O)cc2F)CC1`, the inhibition is, setting by setting: (EGFP decrease, at 10 µM) 10.1%; (at 20 µM) -6.2% (inactive).
With `CCC(CC)NC(=O)COC(=O)CCC(=O)c1ccc(Cl)cc1`, the inhibition by setting is: (EGFP decrease, at 10 µM) 5.2%; (at 20 µM) 24.9% (inactive).
As to `Cc1ccc(-c2nc(CS(=O)CC(=O)NC3CCC(C)CC3)c(C)o2)cc1` (configuration not stated), the inhibition reads like this: (EGFP decrease, at 10 µM) 27.4%; (at 20 µM) -4.5% (inactive).
Regarding `CCn1c(COc2ccc(=O)n(-c3ccccc3)n2)nnc1SCc1ccccc1C`, the inhibition is 4.8% (EGFP decrease, at 10 µM) and 20.9% (inactive) (at 20 µM).
For the compound `COc1ccc(S(=O)(=O)N2CCOC2CNC(=O)C(=O)NCc2ccncc2)cc1` (configuration not stated), the inhibition (EGFP decrease, at 10 µM) was -30.4% and the inhibition (at 20 µM) is 8.6% (inactive).
For `COc1ccc2[nH]cc(CC(=O)O)c2c1` the same measures were 39.2% and 23.6% (inactive).
With `COc1ccccc1N1CCN(CC(O)COCc2cccs2)CC1` (configuration not stated), the inhibition is 16.3% (EGFP decrease, at 10 µM) and 8% (inactive) (at 20 µM).
For `CCC1(C)Cc2c(c(=O)n(-c3ccccc3)c3ncnc(N)c23)CO1` (configuration not stated) the same measures were 4.6% and -38.9% (inactive).
For `CC(=O)Nc1ccc(SCC(=O)Nc2ccccc2Oc2ccccc2)cc1` the same measures were 21.8% and 14.4% (inactive).
Turning to `CCOc1ccc(N(CC(=O)N2CCOCC2)S(=O)(=O)c2ccc(Cl)cc2)cc1`, the inhibition is 12.8% (EGFP decrease, at 10 µM) and 14.1% (inactive) (at 20 µM).
As for `c1ccc(C2CC3CC4(CCCC4)N2O3)cc1` (configuration not stated), the inhibition reads like this: (EGFP decrease, at 10 µM) 17.2%; (at 20 µM) -10.7% (inactive).
For `N/C(Cc1ccc([N+](=O)[O-])cc1)=N\OC(=O)COc1ccc2ccccc2c1` the same measures were 7% and -7.4% (inactive).
For the compound `CCCc1nnc(NC(=O)C2CCN(C(=O)C3CC(=O)N(c4ccc(C)cc4)C3)CC2)s1` (configuration not stated), the inhibition runs as follows: (EGFP decrease, at 10 µM) 13.9%; (at 20 µM) 14.4% (inactive).
For `O=C(Nc1cccnc1)c1ccc(Cl)c(S(=O)(=O)N2CCCCCC2)c1` the same measures were 28.5% and -6.9% (inactive).
In the case of `O=c1nc2n(c3ccc([N+](=O)[O-])cc13)CCCCC2`, the inhibition is 39% (EGFP decrease, at 10 µM) and 29.5% (inactive) (at 20 µM).
Consider `CC(Nc1cc(N2CCN(S(=O)(=O)N(C)C)CC2)ccc1[N+](=O)[O-])c1ccccc1` (configuration not stated), for which the inhibition is 7.3% (EGFP decrease, at 10 µM) and 23.9% (inactive) (at 20 µM).
The like results for `Cc1cc2nnc(SCC(=O)N3CCOCC3)n2c2ccccc12` were, in that order, 26.4% and 17.9% (inactive).
For `Cn1c(C(=O)NCc2cccnc2)cc2sc(Cl)cc21` the same measures were 28.8% and 32.9%.
For `O=C(N/N=C/c1cccc(O)c1)c1ccc(COc2cccc3cccnc23)cc1` the same measures were 2.4% and 7.8% (inactive).
Regarding `O=C(c1ccccc1)N1CCN(C(=O)c2cc3ccccc3o2)CC1`, the inhibition is 8.7% (EGFP decrease, at 10 µM) and 17.1% (inactive) (at 20 µM).
Take `Cc1cc(C(=O)Nc2cccc(O)c2)c(C)o1`: the inhibition is 7.4% (EGFP decrease, at 10 µM) and -9.8% (inactive) (at 20 µM).
For `COc1ccccc1C(=O)NC(CCSC)C(=O)NC1CCCCCC1` (configuration not stated) the same measures were 17.2% and 29.7% (inactive).
With `COc1ccc(-c2cc(C(F)(F)F)nc(N3CCN(C)CC3)n2)cc1OC`, the inhibition by setting is: (EGFP decrease, at 10 µM) 8.9%; (at 20 µM) 8% (inactive).
